≈ marks a conversion by molar mass, not a printed value.
Columns and labels:
Aphidius rhopalosiphi [1] = experiment: LR50; higher = less toxic; settings: acute; duration: 48 hours; mortality
Coturnix japonica = settings: acute; oral; diet; mortality
Mus musculus = settings: oral
Apis mellifera = settings: acute, mortality
[2] = chronic
Lepomis macrochirus = settings: acute; duration: 96 hours; mortality
Oncorhynchus mykiss = settings: chronic/long-term; duration: 96 days; growth
Daphnia magna = settings: chronic/long-term; duration: 21 days; reproduction
Canidae = settings: short-term; duration: 28 days; oral; Dog Other; clinical chemistry
Aphidius rhopalosiphi [3] = settings: chronic/long-term; reproduction
Rattus norvegicus = settings: for NOAEL: clinical chemistry
Tagia sp. = settings: acute; mortality

`COP(=S)(OC)SCN1C(=O)c2ccccc2C1=O` [Phosmet] showed an LR50 (Aphidius rhopalosiphi [1]) of 1.95 g/ha, an LC50 (Coturnix japonica) of 406 mg/kg-day and an LOAEL (Mus musculus; chronic, duration: 2 years, diet, neurology) of 1 mg/kg-day. It also gave an NOAEL (Mus musculus; short-term, duration: 28 days, clinical chemistry) of 2 mg/kg-day, an LD50 (Apis mellifera; duration: 48 hours, dermal) of 0.22 µg/piece and an LD50 (Apis mellifera; oral, unspecified) of 0.37 µg/piece. The NOEC [2] was 0.001 mg/L, the LD50 (Colinus virginianus; acute, oral, mortality) was 57 mg/kg and the NOEC (Colinus virginianus; reproduction developmental) was 7.5 mg/kg-day. For the same molecule, the LC50 (Lepomis macrochirus) was 0.0197 mg/L (≈ 0.0621 µM), the NOEC (Oncorhynchus mykiss) was 0.0032 mg/L and the NOEC (Daphnia magna) was 0.00078 mg/L. It also gave an NOAEL (Canidae) of 2 mg/kg-day, an LEL (Aphidius rhopalosiphi [3]) of 1.41 g/ha and an NOAEL (Rattus norvegicus; acute) of 4.5 mg/kg-day. The LD50 (Rattus norvegicus; acute, oral, mortality) was 113 mg/kg, the NOAEC (Rattus norvegicus; reproduction developmental) was 1.5 mg/kg-day and the NOAEL (Rattus norvegicus; subchronic, duration: 13 weeks) was 1.5 mg/kg-day. For the same molecule, the NOAEL (Rattus norvegicus; subchronic, duration: 90 days, oral) was 2 mg/kg-day and the LC50 (Tagia sp.) was 104 mg/kg.

Source: EPA's ToxValDB 9.5 (doi:10.2903/j.efsa.2006.75r)
